Patent US20240382483A1, “HETEROCYCLIC EGFR INHIBITORS FOR USE IN THE TREATMENT OF CANCER” (Blueprint Medicines Corporation, priority 2021, published 2024)

Tests used:
[1] = target: T1, EGFR (L858R T790M C797S) (Homo sapiens, UniProt P00533, C797S/L858R/T790M); test: Biochemical EGFR inhibition assay (Caliper mobility shift), EGFR LRTMCS; details: LRTMCS (PH) IC50 (nM) @ 1 mM ATP (Num), EGFR LRTMCS mutant
T1 construct: purchased SignalChem E10-122VG
Method in brief: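 Caliper mobility shift read-out: product and substrate peptides separated by electrophoresis and quantified. Reactions at 25° C. taken to 10–20% peptide phosphorylation, quenched with 35 mM EDTA. Apparent IC50 from percent activity vs log [compound].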

[2] = target: T2, intracellular phosphorylation of EGFR in NCI-H1975 cell line that harbors the EGFR L858R T790M mutations (Homo sapiens, UniProt P00533, L858R/T790M); test: NCI-H1975 pEGFR AlphaLISA assay; type: cell-based; details: NCI-H1975 cells (EGFR L858R T790M), p-EGFR (Tyr1068), 4-5 hours incubation; read-out: Ext pEGFR H1975 GMean IC50 (nM) Protocol: @Pharmaron AlphaLISA (Num)
T2 construct: NCI-H1975 cell line that harbors the EGFR L858R T790M mutations (ATCC, CRL-5908); host or cells: NCI-H1975
T2 sequence (P00533 25-1210 T790M/L858R): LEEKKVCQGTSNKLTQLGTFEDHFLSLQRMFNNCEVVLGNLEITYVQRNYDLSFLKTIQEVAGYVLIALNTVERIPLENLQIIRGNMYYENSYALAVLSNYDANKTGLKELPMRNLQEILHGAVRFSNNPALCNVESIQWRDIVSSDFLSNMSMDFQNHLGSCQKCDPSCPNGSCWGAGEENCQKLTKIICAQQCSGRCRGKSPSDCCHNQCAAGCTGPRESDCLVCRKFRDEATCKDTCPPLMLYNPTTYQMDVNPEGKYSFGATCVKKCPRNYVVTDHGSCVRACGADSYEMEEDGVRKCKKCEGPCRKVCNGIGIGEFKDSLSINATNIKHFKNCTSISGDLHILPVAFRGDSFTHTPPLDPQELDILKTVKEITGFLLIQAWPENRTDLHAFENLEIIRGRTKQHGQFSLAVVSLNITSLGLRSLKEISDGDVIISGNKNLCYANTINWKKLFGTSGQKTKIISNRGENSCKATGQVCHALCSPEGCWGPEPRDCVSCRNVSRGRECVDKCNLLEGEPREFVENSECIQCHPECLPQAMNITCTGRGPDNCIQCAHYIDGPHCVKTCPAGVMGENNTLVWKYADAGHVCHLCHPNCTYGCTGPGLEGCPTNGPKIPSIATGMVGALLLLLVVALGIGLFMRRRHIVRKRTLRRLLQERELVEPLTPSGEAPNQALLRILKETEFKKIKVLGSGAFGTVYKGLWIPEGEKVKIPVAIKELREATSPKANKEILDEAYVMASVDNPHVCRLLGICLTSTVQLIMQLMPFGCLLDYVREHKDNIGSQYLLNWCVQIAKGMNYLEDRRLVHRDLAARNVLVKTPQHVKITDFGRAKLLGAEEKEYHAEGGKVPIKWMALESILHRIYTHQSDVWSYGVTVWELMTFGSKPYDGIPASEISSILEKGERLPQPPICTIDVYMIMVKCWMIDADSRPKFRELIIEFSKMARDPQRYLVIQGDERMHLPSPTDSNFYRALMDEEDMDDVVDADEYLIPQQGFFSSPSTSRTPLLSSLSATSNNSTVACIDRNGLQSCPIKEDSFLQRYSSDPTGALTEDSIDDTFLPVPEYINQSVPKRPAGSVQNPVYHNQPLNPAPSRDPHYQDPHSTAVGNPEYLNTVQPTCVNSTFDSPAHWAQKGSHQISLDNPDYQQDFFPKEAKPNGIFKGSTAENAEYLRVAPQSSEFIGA
Procedure: On the next day, the test compounds and DMSO control were added into H1975 cell plate followed by incubation at 37C/5% CO2 for 4-5 hours. […] Then 5 μL of a donor bead mix was added to each well followed by overnight incubation at room temperature in dark. On the next day, the plate was read at a compatible plate reader to obtain pEGFR signal. Percent of pEGFR inhibition was plotted against log concentration of compounds to generate IC50 values.

T1 sequence (P00533 25-1210 T790M/C797S/L858R): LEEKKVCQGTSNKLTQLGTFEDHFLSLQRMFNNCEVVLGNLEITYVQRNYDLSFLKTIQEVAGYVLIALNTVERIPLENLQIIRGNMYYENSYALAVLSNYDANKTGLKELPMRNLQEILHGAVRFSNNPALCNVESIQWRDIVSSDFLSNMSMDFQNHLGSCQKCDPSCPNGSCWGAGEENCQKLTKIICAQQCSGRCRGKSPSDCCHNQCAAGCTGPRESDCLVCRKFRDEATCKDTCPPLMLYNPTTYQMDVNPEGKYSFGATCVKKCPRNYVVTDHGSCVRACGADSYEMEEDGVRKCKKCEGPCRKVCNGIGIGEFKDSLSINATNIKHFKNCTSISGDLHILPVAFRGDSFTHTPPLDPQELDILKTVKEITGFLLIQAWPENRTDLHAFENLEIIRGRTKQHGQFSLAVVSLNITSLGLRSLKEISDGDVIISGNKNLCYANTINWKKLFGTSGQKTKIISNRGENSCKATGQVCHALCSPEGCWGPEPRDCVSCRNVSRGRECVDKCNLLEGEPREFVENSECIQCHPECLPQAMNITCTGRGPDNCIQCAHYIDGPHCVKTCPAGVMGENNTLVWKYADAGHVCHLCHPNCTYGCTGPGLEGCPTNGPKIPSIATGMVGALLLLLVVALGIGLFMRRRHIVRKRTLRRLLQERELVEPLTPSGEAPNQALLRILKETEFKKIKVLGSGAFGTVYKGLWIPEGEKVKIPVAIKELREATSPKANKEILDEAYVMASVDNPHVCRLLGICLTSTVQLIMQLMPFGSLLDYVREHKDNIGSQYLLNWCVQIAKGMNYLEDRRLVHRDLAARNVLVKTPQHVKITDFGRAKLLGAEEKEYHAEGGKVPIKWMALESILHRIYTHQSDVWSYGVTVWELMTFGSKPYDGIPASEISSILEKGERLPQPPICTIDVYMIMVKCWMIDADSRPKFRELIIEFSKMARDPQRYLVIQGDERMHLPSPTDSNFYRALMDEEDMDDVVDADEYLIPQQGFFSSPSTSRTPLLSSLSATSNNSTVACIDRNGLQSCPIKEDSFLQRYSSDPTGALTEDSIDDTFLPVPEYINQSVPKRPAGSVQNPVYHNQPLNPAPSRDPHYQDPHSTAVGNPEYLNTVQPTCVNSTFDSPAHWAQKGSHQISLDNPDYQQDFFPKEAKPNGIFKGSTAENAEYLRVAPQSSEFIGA

| SMILES | IC50 [1] [nM] | IC50 [2] [nM] |
| --- | --- | --- |
| CC(C)c1cnc(N2CC(F)(CO)C2)c2cnc(Nc3ccnc(N4CC[C@@H](O)[C@@](C)(F)C4)n3)cc12 [Example 67, (3S,4R)-3-fluoro-1-(4-((8-(3-fluoro-3-(hydroxymethyl)azetidin-1-yl)-5-isopropyl-2,7-naphthyridin-3-yl)amino)pyrimidin-2-yl)-3-methylpiperidin-4-ol] | 15 to 20 | > 50 |
| CC(C)c1cnc(N2C[C@H](O)[C@H]2C)c2cnc(Nc3ccnc(N4CC[C@@](C)(O)[C@@H](F)C4)n3)cc12 (single isomer, unassigned) [Example 172, (3S,4R)-3-fluoro-1-(4-((8-((2R,3S)-3-hydroxy-2-methylazetidin-1-yl)-5-isopropyl-2,7-naphthyridin-3-yl)amino)pyrimidin-2-yl)-4-methylpiperidin-4-ol or (3R,4S)-3-fluoro-1-(4-((8-((2R,3S)-3-hydroxy-2-methylazetidin-1-yl)-5-isopropyl-2,7-naphthyridin-3-yl)amino)pyrimidin-2-yl)-4-methylpiperidin-4-ol] | 15 to 20 | > 50 |
| COC[C@@H](C)c1cnc(N2CC[C@H]2C)c2cnc(Nc3ccnc(N4CC[C@@H](O)[C@@](C)(F)C4)n3)cc12 (single isomer, unassigned) [Example 216, (3S,4R)-3-fluoro-1-(4-((5-((S)-1-methoxypropan-2-yl)-8-((R)-2-methylazetidin-1-yl)-2,7-naphthyridin-3-yl)amino)pyrimidin-2-yl)-3-methylpiperidin-4-ol or (3S,4R)-3-fluoro-1-(4-((5-((R)-1-methoxypropan-2-yl)-8-((R)-2-methylazetidin-1-yl)-2,7-naphthyridin-3-yl)amino)pyrimidin-2-yl)-3-methylpiperidin-4-ol] | 15 to 20 | 20 to 30 |
| CC(C)c1cnc(N2CC[C@H]2C)c2cnc(Nc3ccnc(N4CC[C@H](OCCN(C)C)[C@H](F)C4)n3)cc12 [Example 202, N-(2-((3R,4S)-4-(2-(dimethylamino)ethoxy)-3-fluoropiperidin-1-yl)pyrimidin-4-yl)-5-isopropyl-8-((R)-2-methylazetidin-1-yl)-2,7-naphthyridin-3-amine] | 30 to 100 | 30 to 50 |
| CC(C)c1cnc(-c2cnn(C3CN(C)C3)c2)c2cnc(Nc3ccnc(N4CC[C@@H](O)[C@@](C)(F)C4)n3)cc12 [Example 22, (3S,4R)-3-fluoro-1-(4-((5-isopropyl-8-(1-(1-methylazetidin-3-yl)-1H-pyrazol-4-yl)-2,7-naphthyridin-3-yl)amino)pyrimidin-2-yl)-3-methylpiperidin-4-ol] | 15 to 20 | > 50 |
| CC(C)c1cnc(N2CC[C@H](O)[C@H]2C)c2cnc(Nc3ccnc(N4CC[C@@H](O)[C@@](C)(F)C4)n3)cc12 [Example 81, (3S,4R)-3-fluoro-1-(4-((8-((2R,3S)-3-hydroxy-2-methylpyrrolidin-1-yl)-5-isopropyl-2,7-naphthyridin-3-yl)amino)pyrimidin-2-yl)-3-methylpiperidin-4-ol] | 15 to 20 | > 50 |
| CC(C)c1cnc(N2CCC[C@H]2CN(C)C)c2cnc(Nc3ccnc(N4CC[C@@H](O)[C@@](C)(F)C4)n3)cc12 [Example 115, (3S,4R)-1-(4-((8-((S)-2-((dimethylamino)methyl)pyrrolidin-1-yl)-5-isopropyl-2,7-naphthyridin-3-yl)amino)pyrimidin-2-yl)-3-fluoro-3-methylpiperidin-4-ol] | 30 to 100 | 30 to 50 |
| CCOc1cnc(N2CC[C@@H]2C)c2cnc(Nc3ccnc(N4CC[C@@H](O)[C@@](C)(F)C4)n3)cc12 (single isomer, unassigned) [Example 182, (3S,4R)-1-(4-((5-ethoxy-8-((S)-2-methylazetidin-1-yl)-2,7-naphthyridin-3-yl)amino)pyrimidin-2-yl)-3-fluoro-3-methylpiperidin-4-ol or (3S,4R)-1-(4-((5-ethoxy-8-((R)-2-methylazetidin-1-yl)-2,7-naphthyridin-3-yl)amino)pyrimidin-2-yl)-3-fluoro-3-methylpiperidin-4-ol] | 30 to 100 | > 50 |
| [2H]C([2H])([2H])O[C@H]1CCN(c2nccc(Nc3cc4c(C(C)C)cnc(N5C[C@H](O)[C@H]5C)c4cn3)n2)C[C@H]1F [Example 138, (2R,3S)-1-(6-((2-((3R,4S)-3-fluoro-4-(methoxy-d3)piperidin-1-yl)pyrimidin-4-yl)amino)-4-isopropyl-2,7-naphthyridin-1-yl)-2-methylazetidin-3-ol] | < 15 | 10 to 20 |
| CC(=O)N1CC(Cc2ccc(C(C)C)c3cc(Nc4ccnc(N5CC[C@@H](O)[C@@](C)(F)C5)n4)ncc23)C1 [Example 2, 1-(3-((3-((2-((3S,4R)-3-fluoro-4-hydroxy-3-methylpiperidin-1-yl)pyrimidin-4-yl)amino)-5-isopropylisoquinolin-8-yl)methyl)azetidin-1-yl)ethan-1-one] | < 15 | > 50 |

Next, values leading:

| IC50 [1] [nM] | IC50 [2] [nM] | SMILES |
| --- | --- | --- |
| < 15 | 30 to 50 | COC[C@@H](C)c1cnc(N2CC[C@H]2C)c2cnc(Nc3ccnc(N4CC[C@@H](O)[C@@](C)(F)C4)n3)cc12 (single isomer, unassigned) [Example 215, (3S,4R)-3-fluoro-1-(4-((5-((S)-1-methoxypropan-2-yl)-8-((R)-2-methylazetidin-1-yl)-2,7-naphthyridin-3-yl)amino)pyrimidin-2-yl)-3-methylpiperidin-4-ol or (3S,4R)-3-fluoro-1-(4-((5-((R)-1-methoxypropan-2-yl)-8-((R)-2-methylazetidin-1-yl)-2,7-naphthyridin-3-yl)amino)pyrimidin-2-yl)-3-methylpiperidin-4-ol] |
| < 15 | < 10 | CC(C)c1cnc(N2CC[C@H]2C)c2cnc(Nc3ccnc(N4CC[C@H](OCCO)[C@H](F)C4)n3)cc12 [Example 141, 2-(((3R,4S)-3-fluoro-1-(4-((5-isopropyl-8-((R)-2-methylazetidin-1-yl)-2,7-naphthyridin-3-yl)amino)pyrimidin-2-yl)piperidin-4-yl)oxy)ethan-1-ol] |
| < 15 | < 10 | CC(C)c1cnc(N2CC(n3ccnn3)C2)c2cnc(Nc3ccnc(N4CC[C@@H](O)[C@@](C)(F)C4)n3)cc12 [Example 89, (3S,4R)-1-(4-((8-(3-(1H-1,2,3-triazol-1-yl)azetidin-1-yl)-5-isopropyl-2,7-naphthyridin-3-yl)amino)pyrimidin-2-yl)-3-fluoro-3-methylpiperidin-4-ol] |
| < 15 | 30 to 50 | CC(C)c1cnc(N2C[C@H](O)[C@H]2C)c2cnc(Nc3ccnc(N4CC[C@](C)(O)C(F)(F)C4)n3)cc12 (single isomer, unassigned) [Example 171, (S)-3,3-difluoro-1-(4-((8-((2R,3S)-3-hydroxy-2-methylazetidin-1-yl)-5-isopropyl-2,7-naphthyridin-3-yl)amino)pyrimidin-2-yl)-4-methylpiperidin-4-ol or (R)-3,3-difluoro-1-(4-((8-((2R,3S)-3-hydroxy-2-methylazetidin-1-yl)-5-isopropyl-2,7-naphthyridin-3-yl)amino)pyrimidin-2-yl)-4-methylpiperidin-4-ol] |
| < 15 | 20 to 30 | CC(C)c1cnc(N2CC[C@H]2[C@@H](C)O)c2cnc(Nc3ccnc(N4CC[C@@H](O)[C@@](C)(F)C4)n3)cc12 (single isomer, unassigned) [Example 65, (3S,4R)-3-fluoro-1-(4-((8-((S)-2-((R)-1-hydroxyethyl)azetidin-1-yl)-5-isopropyl-2,7-naphthyridin-3-yl)amino)pyrimidin-2-yl)-3-methylpiperidin-4-ol or (3S,4R)-3-fluoro-1-(4-((8-((S)-2-((S)-1-hydroxyethyl)azetidin-1-yl)-5-isopropyl-2,7-naphthyridin-3-yl)amino)pyrimidin-2-yl)-3-methylpiperidin-4-ol] |
| < 15 | < 10 | CC(C)c1cnc(N2C[C@@H](C(=O)N(C)C)[C@@H]2C)c2cnc(Nc3ccnc(N4CC[C@@H](O)[C@@](C)(F)C4)n3)cc12 (single isomer, unassigned) [Example 155, (2S,3R)-1-(6-((2-((3S,4R)-3-fluoro-4-hydroxy-3-methylpiperidin-1-yl)pyrimidin-4-yl)amino)-4-isopropyl-2,7-naphthyridin-1-yl)-N,N,2-trimethylazetidine-3-carboxamide or (2R,3S)-1-(6-((2-((3S,4R)-3-fluoro-4-hydroxy-3-methylpiperidin-1-yl)pyrimidin-4-yl)amino)-4-isopropyl-2,7-naphthyridin-1-yl)-N,N,2-trimethylazetidine-3-carboxamide] |
| < 15 | 20 to 30 | CC(C)c1cnc(N2CC[C@@H](CS(C)(=O)=O)C2)c2cnc(Nc3ccnc(N4CC[C@@H](O)[C@@](C)(F)C4)n3)cc12 (single isomer, unassigned) [Example 207, (3S,4R)-3-fluoro-1-(4-((5-isopropyl-8-((R)-3-((methylsulfonyl)methyl)pyrrolidin-1-yl)-2,7-naphthyridin-3-yl)amino)pyrimidin-2-yl)-3-methylpiperidin-4-ol or (3S,4R)-3-fluoro-1-(4-((5-isopropyl-8-((S)-3-((methylsulfonyl)methyl)pyrrolidin-1-yl)-2,7-naphthyridin-3-yl)amino)pyrimidin-2-yl)-3-methylpiperidin-4-ol] |
